Results on 66 compounds are retold here after PubChem BioAssay AID463074 (Broad Institute, 2010).

Active and inactive are the calls of the source.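 How the source made its calls: active means AC50 no more than tenfold above the top dose tested, or full inhibition at every dose with a flat fit (cut at about 19 µM in these data); inconclusive means flat curve fit with inhibition between 30% and 70%, or poor fit; inactive means AC50 more than tenfold above the top dose tested.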

The test relates to HMLE_sh_eGFP viability, CellTiter-Glo luminescence, 72 h. Nature of the test: viability loss of HMLE_sh_eGFP cells – cell-based, luminescence, counter-screen for HMLE_sh_ECad selective toxicity project, dose response (AID 463074).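 Further: counterscreen control line to flag general toxicity for the HMLE_sh_ECad screen; potency for loss of viability as luminescence drops below DMSO wells.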 A general note: The purpose of a counterscreen is to sort out artefacts and off-target activity.
For orientation: AC50 means the midpoint of the concentration-response curve, whichever way the signal moves. For the compound `Cc1cccc(N=N/C(=C\O)C(=O)c2cccs2)c1`, the AC50 was 6.25 µM. As for `CCc1nc(N2CCC(C)CC2)c2oc3ccccc3c2n1`, the figure is 7.06 µM. In the case of `CCn1c2ccccc2c2cc(NC(=O)c3cc(OC)cc(OC)c3)ccc21`, the AC50 was 0.258 µM. In the case of `C[C@]12CC[C@H]3[C@@H](CC[C@]4(O)C[C@@H](O)CC[C@]34C=O)[C@@]1(O)CC[C@@H]2C1=CC(=O)OC1`, the AC50 was 0.446 µM. As for `COc1ccc(CCN2C(=S)N(C)C(=O)C2CC(=O)Nc2ccc(OC)cc2)cc1` (stereo unspecified), the figure is 17.8 µM; as for `O=c1c2cn[nH]c2nc(SCc2ccccc2F)n1-c1ccc(Br)cc1`, 4.9 µM; as for `O=C(NCc1ccc(F)cc1)C(=O)Nc1nc(C23CC4CC(CC(C4)C2)C3)cs1`, 2.13 µM. Regarding `Oc1ccc(/C=N/Nc2nc(-c3ccc(Cl)cc3)cc(C(F)(F)F)n2)cc1`, the AC50 was 6.82 µM. As for `Cc1cc([N+](=O)[O-])ccc1-c1ccc(/C=N/NC(=O)c2ccc(Br)o2)o1`, the figure is 3.49 µM; as for `Cc1cccc(C)c1N=Nc1c(C)cc(O)cc1C`, 7.2 µM. As for `CN1CCN(c2ccc(S(=O)(=O)N3CCCCC3)cc2NC(=O)/C=C/c2ccc(Cl)c([N+](=O)[O-])c2)CC1`, the figure is 4.42 µM.

With `CC(C)(c1ccccc1)c1ccc(OCCCN2CCNCC2)cc1`, the AC50 is 0.745 µM.

With `CCOc1ccc(S(=O)(=O)N2CCN=C2c2ccccc2)cc1`, the AC50 was 3.1 µM. Turning to `COc1ccc(C(=O)NCC2(c3ccccc3)CCCC2)c(OC)c1`, the AC50 is 9.54 µM.

Consider `O=C(Cc1ccc(Cl)cc1)Nc1ccc2c(c1)C(=O)NC2=O`, for which the AC50 is > 19.5 µM (inactive). In the case of `FC(F)(F)c1ccc(-c2noc(CN3CCCN(C4CCCCC4)CC3)n2)cc1`, the AC50 was 7.39 µM.

As for `CN(C(=S)Nc1ccc(SC(F)F)cc1)C(c1ccccc1)c1ccccc1`, the AC50 is 5.58 µM. As for `CCCCCNCC(=O)Nc1cccc(C(=O)Nc2cccc(C(F)(F)F)c2)c1`, the figure is 13.2 µM; as for `CC(=O)Oc1ccc(-c2ccc(C(=O)Nc3cccc(S(=O)(=O)N4CCOCC4)c3)cc2)cc1`, 1.46 µM. As for `Cc1ccc(C2(c3noc(CN4CCC(c5ccncc5)CC4)n3)CCCC2)cc1`, the figure is 2.32 µM. As for `C=C1CCN([C@@H](CC(C)C)C(=O)Nc2nc3ccc(Cl)cc3s2)S(=O)(=O)c2ccccc21`, the figure is 14.5 µM.

For `C=C(C)COc1ccc(-c2n[nH]c(C)c2-c2ccc(OC)cc2)c(O)c1`, the AC50 is 4.47 µM. As for `CN(C)CCOc1ccc(C(C)(C)c2ccccc2)cc1`, the figure is 5.19 µM. As for `O=C(NCc1ccco1)c1nc2c(nnn2Cc2ccccc2Cl)c(=O)[nH]1`, the figure is 1.92 µM; as for `Cc1ccc(/C=C/C(=O)c2cc(Br)ccc2OC(=O)c2ccco2)cc1`, 5.92 µM. As for `CS(=O)(=O)c1ncc(Cl)c(C(=O)Nc2ccc(N3CCOCC3)cc2)n1`, the figure is 6.81 µM; as for `COc1ccc(C2NCCc3c2[nH]c2ccccc32)cc1CSc1nc2ccccc2s1` (stereo unspecified), 4.98 µM; as for `CC1(NC(=O)CC(c2ccccc2)(c2ccccc2)c2ccccc2)CCN(CCCc2ccccc2)C1=O` (stereo unspecified), 6.85 µM. As for `O=C(NCCCN1CCOCC1)c1ccc(Sc2ccc(Br)cc2)c([N+](=O)[O-])c1`, the AC50 is below 0.16 µM. As for `CC(=O)Oc1ccc(C2=NN(c3ccccc3)C(c3ccccc3)C2)cc1` (stereo unspecified), the figure is 4.18 µM.

For `Cn1nnnc1Sc1ncnc2scc(-c3ccc(C(F)(F)F)cc3)c12`, the AC50 is 3.03 µM.

Turning to `CC(C)c1ccc(/C=N/NC(=O)c2cccc(Cl)c2)cc1`, the AC50 was 8.64 µM. Take `COC(=O)c1ccc(/C=C/c2c(-c3ccsc3)oc3ccc(N4CCOCC4)cc23)cc1`: the AC50 was 6.37 µM. As for `Cc1ccc(S(=O)(=O)c2c(C)nn(C(C)(C)C)c2OC(=O)c2ccc(Br)o2)cc1`, the figure is 2.64 µM; as for `CC(C)Oc1ccc(CNC(=O)CC(c2ccccc2)c2cc(Cl)ccc2O)cc1` (stereo unspecified), 5.58 µM; as for `CC(=O)O[C@H]1[C@H]2O[C@]23[C@@H]2CC[C@]4(O)C[C@@H](O)CC[C@]4(C)C2CC[C@]3(C)[C@H]1c1ccc(=O)oc1` (stereo partly specified), below 0.16 µM.

`NC(=O)CC(NC(=O)Cc1ccc(Br)cc1)c1ccc(NC2CC3CCC2C3)c([N+](=O)[O-])c1` (stereo unspecified): the AC50 was 6.74 µM. As to `CCOc1cc(N2CCOCC2)c(OCC)cc1NC(=O)CN1CCC(Cc2ccccc2)CC1`, the AC50 is 2.43 µM.

Turning to `COC(=O)c1c(NC(=O)c2ccco2)sc2c1CCC2`, the AC50 was > 19.5 µM (inactive).

With `CCOC(=O)c1c(C)nc2c(c1-c1ccc(Cl)cc1)C(=O)CC(C)(C)C2`, the AC50 is 18.1 µM. As for `COc1ccc(/C=N/N(c2ccccc2)c2ccccc2)cc1O`, the figure is 7.09 µM; as for `CCCCNc1c(-c2ccc(SC(C)CC)cc2)nc2ccccn12` (stereo unspecified), 4.06 µM. As to `O=C(COc1ccc(-c2ccccc2)cc1)N/N=C/c1cc(O)ccc1Br`, the AC50 is 5.68 µM. As for `Cc1ccccc1CNc1ccc(C(CC(N)=O)NC(=O)c2ccccc2)cc1[N+](=O)[O-]` (stereo unspecified), the figure is 6.24 µM.

For the compound `Cc1cc(C)c2nc(N3CCCC(C(=O)N4CCN(c5ncccn5)CC4)C3)sc2c1` (stereo unspecified), the AC50 was 11.2 µM.

Regarding `CCCCn1c(C2CCCCC2)nc2cc3[nH]c(=O)c(C(C)C)nc3cc21`, the AC50 was 1.52 µM. As for `CCc1ccc(NC(=O)c2cc3c(C)nc4ccccc4c3o2)cc1`, the figure is 11.9 µM; as for `O=C(Nc1ccc(S(=O)(=O)N2CCOCC2)cc1)c1ccc([N+](=O)[O-])o1`, 5.38 µM. For the compound `CC(C)=CCc1c(O)c(CC=C(C)C)c2occ(-c3ccc(O)cc3)c(=O)c2c1O`, the AC50 is 3.49 µM. As for `Nc1nc(=S)c2ncn([C@@H]3O[C@H](CO)[C@@H](O)[C@H]3O)c2[nH]1`, the figure is 0.465 µM; as for `COc1ccc(-c2sc3ccc(OC)cc3c2C#CCCO)cc1`, 7.27 µM; as for `Cc1ccc(C(=O)N/C(=C\c2ccc(-c3ccc(Br)cc3)o2)C(=O)NCCCN(C)C)cc1`, 4.38 µM.

Turning to `CC1CCN(CC(CS(=O)(=O)c2ccc([N+](=O)[O-])cc2)N2CCC(C)CC2)CC1` (stereo unspecified), the AC50 is 6.58 µM. As for `Cc1ccccc1NC(=O)C(Cl)=C(Cl)Cl`, the figure is 7.21 µM. As for `COC(=O)c1c(NC(=O)COc2ccc(Cl)cc2Cl)sc2c1CC(C)(C)NC2(C)C`, the figure is 6.62 µM.

As for `CCC1CSC(Nc2ccc(C(=O)/C=C/c3ccc(Br)cc3)cc2)=N1` (stereo unspecified), the AC50 was 5.68 µM.

Consider `CN1/C(=C\C(=O)Nc2ccc(Br)cc2)C(C)(C)c2ccccc21`, for which the AC50 was 7.32 µM. As for `CC1(C)CN(c2ccccc2)N(C(=O)c2ccc(F)cc2)C1=O`, the figure is 5.6 µM; as for `CCCCCCC(C)(C)c1ccc([C@@H]2C[C@H](O)CC[C@H]2CCCO)c(O)c1`, 3.5 µM; as for `CC(C)(C)c1ccc(C(=O)NCCCN2CCN(CCCNC(=O)c3ccc(C(C)(C)C)cc3)CC2)cc1`, 3.25 µM. As for `N#C/C(=C\C=C\c1ccccc1[N+](=O)[O-])C(=O)NC1CCCCC1`, the figure is 6.88 µM.

As for `COc1cc2c(cc1OC)C(c1ccc(-c3ccc(Cl)c(Cl)c3)o1)=NCC2`, the AC50 was 3.99 µM. As for `O=C(N/N=C/c1cccc(O)c1)c1ccc(COc2ccccc2Br)cc1`, the figure is 6.42 µM; as for `O=C(N/N=C/c1ccc[nH]1)c1sc2ccccc2c1Cl`, 13.4 µM; as for `Cc1ccc(NC(=O)C(=Cc2ccc(C(=O)O)cc2)C(=O)Nc2ccc(C)cc2C)c(C)c1`, 3.16 µM. As for `Cc1cccc(Cn2cc(/C=C/[N+](=O)[O-])c3ccccc32)c1`, the figure is 3.47 µM.
